From PubChem BioAssay AID743417 (Broad Institute, 2014)
Inconclusive results are not listed. Active and inactive are the calls of the source.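 The calls were made as follows: active = compounds lowering the luciferase signal with a fitted half-maximal dose at most twice their top valid dose (cut at about 30 µM in these data); inconclusive = flat fits with moderate signal loss, or poor fits; inactive = the rest.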

These molecules were tested on Clone20 osteoblast Shn3 3'UTR firefly luciferase, 24 h (assay: Schnurri-3 3'UTR-luciferase signal suppressors – cell-based, Clone20 osteoblasts, luminescence, dry powder, set 2, dose response (AID 743417)).

| Structure (SMILES) | AC50 |
| --- | --- |
| O=C(c1cccc(S(=O)(=O)N2CCN(c3ccc(F)cc3)CC2)c1)N1CCCC(C(F)(F)F)C1 (centres undefined) | 942 nM |
| COc1ccc2c(CC(=O)OCC(=O)N(C)c3c(N)n(Cc4ccccc4)c(=O)[nH]c3=O)coc2c1 | 21200 nM |
| CC(=O)N1CCOc2cc(S(=O)(=O)NCc3ccc(F)cc3)c(C)cc21 | > 70000 nM (inactive) |
| Cc1ccc(Oc2ccc(OCC(=O)Nc3ccncc3)cc2)cc1 | 1550 nM |
| Cc1ccc(C)c(S(=O)(=O)Nc2ccc(-n3cnnn3)cc2)c1 | > 70000 nM (inactive) |
| O=C1CCc2cccc(O)c2N1 | 12200 nM |
| COc1ccc(C2/C=C\CN(S(=O)(=O)c3ccc(C)cc3)[C@H](Cc3ccccc3)C(=O)N2Cc2ccc(F)cc2)cc1 (some centres undefined) | 12900 nM |
| Cc1ccc(S(=O)(=O)N2CCC3(CC2)OCCN3S(=O)(=O)c2c(C)cc(C)cc2C)cc1 | 6810 nM |
| CC1=C(CO)C(=O)OC([C@@H](C)C2CC[C@H]3C4C[C@H]5O[C@]56[C@@H](O)C=CC(=O)[C@]6(C)C4CC[C@]23C)C1 (some centres undefined) | 674 nM |
| CC(=O)Nc1ccc(OCC(=O)Nc2ccc(Cl)c(S(=O)(=O)N3CCOCC3)c2)cc1 | 1590 nM |
| c1csc(CNc2ncnc3sccc23)c1 | 1800 nM |
| COc1ccc([C@H]2CC(=O)C=C(c3ccc(F)cc3OCc3ccccc3)C2)cc1OC | 7360 nM |
| COc1ccc(N2CCN(C(=O)CN3CCN(c4nc(-c5ccc(F)cc5)cs4)CC3)CC2)cc1 | 1810 nM |
| CCN(CC)C(=O)[C@H]1C[C@H](CC(=O)NC/C=C(\C)CCC=C(C)C)C(=O)N2CCc3c([nH]c4cc(CCC(=O)N(C)C)ccc34)[C@]12C | 1370 nM |
| COc1ccccc1-c1cc(C(F)(F)F)nc(S(C)(=O)=O)n1 | 4060 nM |
| CC(CCCC(C)(C)O)NC(=O)c1cc(COc2ccc3ncccc3c2)on1 (centres undefined) | 1750 nM |
| C=CCC[C@H](Cc1ccc(F)cc1)C(=O)OC[C@@H](Cc1c[nH]c2ccccc12)NC(=O)[C@H](CC=C)CC(=O)N(CCO)Cc1ccccc1 | 8660 nM |
| Cc1nc2ccc(NC(=O)c3cccc(S(=O)(=O)N(C)c4ccccc4)c3)cc2s1 | 7600 nM |
| CNc1ccccc1C(C)(C)c1cc(-c2cccc(OC)c2)no1 | 1920 nM |
| CCN(CC)S(=O)(=O)c1ccc(S(=O)(=O)N2CCCC(C(=O)NC3CC3)C2)cc1 (centres undefined) | 2900 nM |
| CN(C)c1ccc(/C=C/c2ccc3ccccc3n2)cc1 | 1330 nM |
| Cc1c(C)c2ccc(OCC(=O)Nc3ccccn3)c(C)c2oc1=O | 416 nM |
| O=C(Nc1nc2cc3c(cc2s1)OCCO3)C1=COCCO1 | 2170 nM |
| COc1ccc(OCC(=O)NNC(=S)NC(=O)c2ccc(Br)o2)cc1 | 5270 nM |
| CCC(C)C1NC(=O)C(NC(=O)C(CC(C)C)N(C)C(=O)C2CCCN2C(=O)C(C)O)C(C)OC(=O)C(Cc2ccc(OC)cc2)N(C)C(=O)C2CCCN2C(=O)C(CC(C)C)NC(=O)[C@H](C)C(=O)[C@H](C(C)C)OC(=O)CC1O (some centres undefined) | < 260 nM |

| Structure (SMILES) | AC50 |
| --- | --- |
| Cc1cc2cc(CN(CC3CCCO3)C(=S)Nc3ccccc3)c(=O)[nH]c2cc1C (centres undefined) | 2910 nM |
| COc1ccc(NC(=O)c2sc3ncnc(N4CCN(c5ccccn5)CC4)c3c2C)cc1Cl | 4080 nM |
| CCN(CC)CCN1C(=O)/C(=C\c2ccc(Cl)c([N+](=O)[O-])c2)SC1=Nc1ccc(OC)cc1 | 2110 nM |
| Cc1sc2ncnc(N3CCN(CCOc4ccc(Cl)cc4)CC3)c2c1C | 1350 nM |
| CC(C)C[C@@H](CO)N(Cc1ccccc1)S(=O)(=O)N(Cc1ccccc1)[C@@H](CO)CC(C)C | 11400 nM |
| CC(C)C1C(=O)N(Cc2cn(CCC3OCCO3)nn2)CCS(=O)(=O)N1Cc1ccc(-c2ccc(Cl)cc2)cc1 (centres undefined) | 2130 nM |
| Cc1onc(-c2ccccc2Cl)c1C(=O)N1CCC(Cc2ccccc2)CC1 | 2290 nM |
| Cc1c(C(C)C)c(=O)n(-c2ccc(S(=O)(=O)NC3CCCCC3)cc2)n1C | 1060 nM |
| COc1ccc(OC)c(C(c2nnnn2Cc2ccccc2)N2CCN(C3CCCCC3)CC2)c1 (centres undefined) | > 70000 nM (inactive) |
| Cc1ccccc1C(=O)N1CCN(c2ccc(NC(=O)CSc3ccc(Cl)cc3)cc2)CC1 | 4230 nM |
| Cc1ccc(Cn2ccc(=O)c(OCc3c(Cl)cccc3Cl)c2C)cc1 | 6110 nM |
| COC(=O)c1ccc(COC(=O)c2[nH]c(C)c(C(C)=O)c2C)o1 | 2580 nM |
| Cc1nc2ccccc2c2oc(C(=O)N3CCN(C4CCCCC4)CC3)cc12 | 7020 nM |
| Cc1ccc(S(=O)(=O)c2ncccc2[N+](=O)[O-])cc1 | 1910 nM |
| COc1ccc2c(c1OC)C(=O)OC2Nc1nc(-c2ccccc2)cs1 (centres undefined) | 4700 nM |
| CC(C)c1ccc(NC(=O)Nc2nc(C(N)C3CCCCC3)cs2)cc1 (centres undefined) | 7290 nM |
| CC1=C(C(=O)OC2CCCCC2)C(c2cccnc2)n2nnnc2N1 (centres undefined) | 3230 nM |
| Oc1c(Cl)cc(CN2CCOCC2)c2cccnc12 | 2430 nM |
| C#CC(=O)N(c1cc(OC)ccc1OC)C(C(=O)NC1CCCC1)c1cccs1 (centres undefined) | 4570 nM |
| Cc1ccc(CNC(=O)c2cc3c(C)nc4ccccc4c3o2)cc1 | 2490 nM |
| CCCCCCCN1C(Nc2ccccc2)=NC[C@@H]1Cc1ccccc1 | 4820 nM |
| Cc1cccc(C)c1NC(=O)CN(C)C(=O)c1cc(S(=O)(=O)N(C)C)ccc1N1CCCC1 | 27100 nM |
| COc1ccc(NS(=O)(=O)c2ccc(OC)c(N(C)S(=O)(=O)c3ccc(Cl)cc3)c2)cc1 | 2920 nM |
| CN(Cc1cccc(Cl)c1Cl)C(=O)c1cccc(S(=O)(=O)N2CCN(Cc3ccccc3)CC2)c1 | 3380 nM |
| Cc1cccc(N2CCN(C(=O)CSCc3c(C)noc3C)CC2)c1C | 2410 nM |

| Structure (SMILES) | AC50 |
| --- | --- |
| Cc1cc(C)nc(/N=C(\N)Nc2ccc(-c3ccccc3)cc2)n1 | 4450 nM |
| CCCc1nc2c(=O)n(C)c(=O)nc-2n(C)n1 | 2170 nM |
| CCN1CCN(Cc2ccc(NC(=O)c3ccc(C)c(NC(=O)c4cncc(-c5cccs5)c4)c3)cc2C(F)(F)F)CC1 | 808 nM |
| O=C(OCCN1C(=O)c2cccc3c(N4CCOCC4)ccc(c23)C1=O)c1ccccc1Cl | 3060 nM |
| CN1CCN(C(c2ccc(Br)cc2)c2cc(Cl)c3cccnc3c2O)CC1 (centres undefined) | 3610 nM |
| COc1cc2c(cc1OC)C1C(=O)c3ccc4c(c3OC1CO2)CC(C(C)C)O4 (centres undefined) | < 260 nM |
| Cc1ccc2[nH]c3c(N4CCN(Cc5ccccc5)CC4)ncnc3c2c1 | 4180 nM |
| CCN(CCCl)c1cc(CN(C)C)cc(NC(=O)c2ccc(C(=O)Nc3cc(CN(C)C)cc(N(CC)CCCl)c3)cc2)c1 | 2650 nM |
| CCOc1cc(N2CCOCC2)c(OCC)cc1NC(=O)c1cc(-c2ccco2)nc2ccccc12 | 8940 nM |
| CC(C)n1c(/C=C/[C@H](O)C[C@H](O)CC(=O)O)c(-c2ccc(F)cc2)c2ccccc21 | 1420 nM |
| Cn1c(/C=C/c2ccc(Cl)cc2Cl)c([N+](=O)[O-])c(=O)n(C)c1=O | 6870 nM |
| CN1CCN(S(=O)(=O)c2ccc(Sc3nnnn3-c3ccccc3)c([N+](=O)[O-])c2)CC1 | 3900 nM |
| Cc1ccccc1CS(=O)(=O)c1nnc([C@H](Cc2ccccc2)NC(=O)OC(C)(C)C)o1 | 1230 nM |
| O=C(c1nnsc1S(=O)(=O)c1ccc(Cl)cc1)N1CCOCC1 | 7740 nM |
| CCn1c(=NC(=O)CCS(=O)(=O)c2ccccc2)sc2cccc(OC)c21 | 1280 nM |
| C=C1C(=O)[C@]23C[C@H]1CCC2[C@@]1(C)C(C[C@@H]3O)[C@](C)(C(=O)OC)CC[C@@H]1OC(C)=O (some centres undefined) | 2140 nM |
| Cc1cc(S(=O)(=O)c2ccc(Cl)cc2)nc(S(=O)(=O)c2ccc(Cl)cc2)c1C#N | 2830 nM |
| C[C@H]1COC(=O)[C@H](NC(=O)OCC2c3ccccc3-c3ccccc32)C/C=C\C[C@H](CC(=O)N(CCO)Cc2ccccc2)C(=O)N1 | 6080 nM |
| Oc1c(CN2CCN(c3ccccc3)CC2)cc(Br)c2cccnc12 | 1920 nM |
| CC1CCC2C(=O)N(c3ccc(Cc4ccncc4)cc3)C(=O)C2C1 (centres undefined) | 2650 nM |
| COc1ccc(CNc2ncnc3c2[nH]c2ccccc23)cc1 | 4190 nM |
| CS(=O)(=O)c1ccc(C(=O)OCC(=O)N2CCN(CCC3CCCCC3)CC2)cc1[N+](=O)[O-] | 2410 nM |
| CC/C(=C/c1ccccc1)c1cccc2[nH]c3c(OC)cccc3c12 | 32800 nM |
| CCOC(=O)c1c2c(n(-c3ccc(OC)cc3)c1C)C(=O)C(=O)c1ccccc1-2 | 3150 nM |
| CS(=O)(=O)c1ncc(Cl)c(C(=O)Nc2ccc(OC(F)F)cc2)n1 | 682 nM |

| Structure (SMILES) | AC50 |
| --- | --- |
| COc1ccc(CNc2ncnc3ccccc23)cc1 | 674 nM |
| COc1ccc2c(c1)sc1nc(-c3ccccc3)cn12 | 7370 nM |
| C=C1C(=O)[C@]23C[C@H]1CCC2[C@@]1(C)C(C[C@@H]3O)[C@](C)(C(=O)OC)CC[C@@H]1O (some centres undefined) | 2580 nM |
| CCCOc1ccc(C(=O)NNC(=S)NC(=O)CC)cc1 | 24400 nM |
| CC1CCN(c2ccc(-c3cccc(NC(=O)C(F)(F)F)c3)nn2)CC1 | 2740 nM |
| O=C(/C=C/Sc1ncn[nH]1)c1ccc(Cl)cc1 | 9760 nM |
| COc1ccccc1CNc1nc(NCc2ccccc2SC)c2sccc2n1 | 4480 nM |
| CCCCC(=O)NC(c1ccc(Cl)cc1Cl)c1ccc2cccnc2c1O (centres undefined) | 670 nM |
| Fc1ccc2[nH]c3c(N4CCSCC4)ncnc3c2c1 | 2760 nM |
| Cc1ccccc1C(=O)N1CCN(c2ccc(NC(=O)c3ccc([N+](=O)[O-])o3)cc2)CC1 | 864 nM |
| CC(C)OC(=O)c1ccc(NCc2cc(O)ccc2O)cc1 | 1900 nM |
| Cn1c(=O)c2c(nc(NCc3ccco3)n2C/C=C/c2ccccc2)n(C)c1=O | 1080 nM |
| CCC(=O)OCCNc1cc(Sc2nccn2C)c2nonc2c1[N+](=O)[O-] | 1550 nM |
| COc1cc(OC)c(OC)cc1CNC(=O)c1cccc(S(=O)(=O)N2CCc3ccccc3C2)c1 | 2390 nM |
| Fc1ccc(-n2nnnc2-c2cnc(-c3cccs3)nc2C(F)(F)F)cc1 | 4440 nM |
| CSc1nnc(NC(=O)c2nc(S(=O)(=O)Cc3cccc(C)c3)ncc2Cl)s1 | 4030 nM |
| CCCCCCCCCCOC(=O)Cn1c(COc2ccc(OC)cc2)[n+](C)c2ccccc21 | 2010 nM |
| O=[N+]([O-])c1cc(S(=O)(=O)C(F)(F)F)ccc1Sc1nc2ccccc2s1 | 2450 nM |
| CCc1c(C)nc2ncnn2c1N1CCN(S(=O)(=O)c2ccc(OC)cc2)CC1 | 1160 nM |
| COc1ccccc1NS(=O)(=O)c1cccc(C(=O)NC2CCN(Cc3ccccc3)CC2)c1 | 1950 nM |
| Cc1cc(C)c(-c2csc(NC(=O)CCCc3nc4ccccc4c(=O)[nH]3)n2)c(C)c1 | 2970 nM |
| CC1CCN(Cc2ccc(-c3nnn(CC(=O)Nc4ccccc4Cl)n3)cc2)CC1 | 1770 nM |
| C=CC[C@H](CC(=O)N(CCO)Cc1ccccc1)C(=O)NC[C@H](OC(=O)[C@@H](CC=C)Cc1ccc(F)cc1)c1ccccc1 | 10700 nM |
| CC(=O)N1c2ccc(S(=O)(=O)N3CCC(C(=O)N4CCN(c5ccccc5F)CC4)CC3)cc2CC1C (centres undefined) | 5410 nM |
